Assay results reported in patent US9279806B2, “Water-soluble AIE luminogens for monitoring and retardation of fibrillation of amyloid proteins” (THE HONG KONG UNIVERSITY OF SCIENCE AND TECHNOLOGY, priority 2005, dated 2016).
Read-outs that look alike come from different tables or passages of the source. Blank lines part the entries; values can stand above or below the compound they belong to.

Experiments:
[1] = target: Bovine serum albumin (BSA) (Bos taurus, UniProt P02769); assay: Fluorimetric titration of BSA to polyenes; assay type: binding; details: for ΦE (quantum yield), bind / λex (emission maximum), bind: BSA solution of TPE-OH•Na2 or TPE-SO3 in aqueous phosphate buffer pH 7.0; for λex (emission maximum), bind: excitation 350 nm
Bovine serum albumin (BSA), sequence (P02769 25-607): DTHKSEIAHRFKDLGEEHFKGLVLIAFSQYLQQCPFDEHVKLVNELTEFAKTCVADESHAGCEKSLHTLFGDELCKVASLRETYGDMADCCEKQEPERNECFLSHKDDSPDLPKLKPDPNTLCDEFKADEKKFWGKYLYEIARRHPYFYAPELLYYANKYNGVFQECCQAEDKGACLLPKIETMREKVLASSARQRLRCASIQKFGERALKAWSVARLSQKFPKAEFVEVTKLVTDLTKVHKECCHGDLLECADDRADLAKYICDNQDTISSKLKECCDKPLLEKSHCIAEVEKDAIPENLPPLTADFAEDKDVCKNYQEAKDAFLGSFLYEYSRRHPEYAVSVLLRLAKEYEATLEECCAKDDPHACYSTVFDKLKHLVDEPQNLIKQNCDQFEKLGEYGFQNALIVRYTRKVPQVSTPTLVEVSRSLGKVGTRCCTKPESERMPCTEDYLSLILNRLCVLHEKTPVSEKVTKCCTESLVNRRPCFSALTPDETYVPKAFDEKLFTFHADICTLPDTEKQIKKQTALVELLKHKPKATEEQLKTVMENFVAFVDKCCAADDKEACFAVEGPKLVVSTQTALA
Description: (§1) Fluorimetric titration of biomacromolecules to polyenes Bovine serum albumin (BSA) and calf thymus DNA (ctDNA) were selected as model proteins and DNA. BSA was dissolved in a pH 7.0 phosphate buffer solution (1.0 mg/ml). DNA was dissolved in deionized water (1.0 mg/ml) and filtered through a 0.45 μm filter. The actual concentration (in nucleic base) was determined by UV photometry using the extinction coefficient ε260=6600 M^−1 cm^−1.
(§2) Stock solutions of polyenes were 5×10^−4 M in water. Fluorescence titration was carried out by sequentially adding 100 μl aliquots of DNA or BSA solutions to a 100 μl stock solution of polyenes, followed by adding an aqueous phosphate buffer (10 mM, pH 7) to acquire a 10.00 ml solution. The mixtures were stirred for half an hour prior to taking their spectra.
Complexation of the water-soluble AIE TPEs 3 and 4 with calf thymus DNA (ctDNA) and bovine serum albumin (BSA) were investigated by spectrometric titrations in aqueous phosphate buffer (pH=7.0) at 25 C. Stock solutions of TPEs 3 and 4 (0.25 mM) were prepared.

calf thymus DNA (ctDNA) = assay: Fluorimetric titration of ctDNA to polyenes; assay type: binding; details: for Relative affinity to ctDNA versus BSA: phosphate buffer pH 7, dye 2.5 μM
Description: as §1, §2
Complexation of the water-soluble AIE TPEs 3 and 4 with calf thymus DNA (ctDNA) and bovine serum albumin (BSA) were investigated by spectrometric titrations in aqueous phosphate buffer (pH=7.0) at 25 C. Stock solutions of TPEs 3 and 4 (0.25 mM) were prepared. The mixture of 100 μl stock solution of 3 with 9.9 ml buffer emits faintly at 395 nm with a side band at 462 nm. Its absorption maximum locates at 311 nm, with a molar absorptivity of 12400M^−1 cm^−1. Upon addition of the DNA, FL intensity of TPE 3 increased by 5.4 fold. Meanwhile its emission maximum shifted to ˜462 nm, giving a Stokes shift as large as 134 nm. In the DNA concentration range of 0-100 μg/ml^−1, the plot of the FL intensity (1) at 462 nm as a function of DNA concentration (c) is a linear line with a correlation coefficient of 0.996. Addition of BSA to a buffer solution of TPE 3 induced a similar effect. The linear range of the I/IO−1 vs. c plot in this case is 0-50 μg/ml^−1. The excitation maximums of the solutions of TPE3 containing BSA and ctDNA both locate at 328 nm.

Solubility = assay type: physicochemical
[2] = test system: ctDNA/RNA from torula yeast/BSA; assay: Fluorescence increments / binding isotherm with ctDNA, RNA and BSA; details: 10 μg/ml ctDNA or RNA, dye 5 μM
Description: FIG. 8 illustrates increments of fluorescence of TPE-C2N^+ (8), N+C2-TPE-C2N^+ (9), TPE-C4N^+ (10), N+C4-TPE-C4N^+ (11) when binding with 10 μg/ml ctDNA/10 μg/ml RNA diethylaminoethanol (DEAE) salt from torula yeast/10 μg/ml RNA from torula yeast in buffer solution pH=7. Concentration of dyes: 5 μM; excitation wavelength: 350 nm. The four cationic TPE derivatives display larger FL enhancement in the presence of DNA than that of RNA.
FIG. 9 illustrates the binding isotherm of N+C2-TPE-C2N^+ (5 μM) to ctDNA/RNA from torula yeast/BSA (plot of the fluorescence intensity at 470 nm for ctDNA/RNA, and at 467 nm for BSA) in aqueous phosphate buffer (pH=7.0).

[3] = Photophysical properties in solution and aggregate states (AIE effect); assay type: physicochemical; details: for Emission maximum wavelength (λem): excitation 350 nm
lysozyme = assay: FL during lysozyme fibril formation; details: 10, 50 and 100 μM, over 4 days
[4] = test system: heparin, apoferritin, cellulose, papain, native and fibrillar insulin; assay: FL specificity against other protein monomers; details: protein 1.0 mg/mL
amyloid-β-peptide = amyloid-β-peptide (Homo sapiens, UniProt P05067); assay: FL with amyloid-β-peptide before and after aging; details: 0.1 mg/mL amyloid-β-peptide, λex 350 nm
amyloid-β-peptide, sequence (P05067 672-711 limits assumed): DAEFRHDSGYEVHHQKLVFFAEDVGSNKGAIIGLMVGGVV

[5] = Photophysical properties in solution and aggregate states (AIE effect); assay type: physicochemical; details: for Fluorescence quantum yield (ΦF), molecularly dissolved: AN solution / AN-water mixtures with low water fraction; for Fluorescence quantum yield (ΦF), aggregated: AN/water mixture with 99% water
Excerpt: Changes in the φF values of TBEPE in the AN/water mixtures with different water contents further confirm its AIE nature. […] Afterward the φF value starts to increase swiftly. In the AN/water mixtures with lower water fractions, TBEPE is genuinely dissolved, while in the aqueous mixtures with higher water fractions (>60%), the dye molecules cluster together due to the deterioration in the solvating power of the mixture. When the water fraction is increased to 99 vol %, the aφF value is increased to −18%, which is ˜35-fold higher than that in the pure AN solvent. The absolute φF values of the aggregates should be much higher than the relative ones given in FIG. 26A, if the light scattering caused by the Mie effect of the nanoaggregatcs is taken into consideration. […]
Dilute solutions of TPEs 1 and 2 in AN are practically non-luminescent. Addition of non-solvent water into the AN solutions can turn on the emissions of the dyes. From the molecular solution in AN to the aggregate suspension in an AN-water mixture (1:99 by volume), the fluorescent intensity of TPE 1 at 476 nm is increased by −240 fold (FIG. 11A). Its absorption maximum shifts from 310 nm in the solution to 330 nm in the suspension. The excitation maximum of TPE 1 locates at 330 nm, coinciding well with its absorption maximum. […] Evidently, the emission of TPE 1 is induced by the aggregate formation, or in other words, TPE 1 is AIE-active.
The ΦF value of TPE 1 starts to increase when the water fraction is increased to ˜50%, at which the solvating power of the mixture is decreased to such an extent that the dye molecules begin to aggregate. The ΦF value reaches ˜20% at a water content of 99%, which is ˜40-fold higher than that of its AN solution. […] Their emissions in the mixtures remain as faint as those in the water solutions.

HG21 DNA = assay: CD spectra: G-quadruplex induction by TPE derivatives; assay type: biochemical; details: 9 μM DNA, 4.5 μM TPE derivative, Tris-HCl pH 7.5, 25 °C
Description: [TPE]=4.5 μM; [HG21]=9 μM and [K^+]=0.5 M.
CD spectral profiles of 9 μM DNA in 5 mM Tris-HCl buffer solutions (pH 7.5) incubated under 25° C. with four different TPE derivatives at 4.5 μM or with 0.5M K^+ ions are studied (FIG. 77). TPE derivatives 1-4 are TTAPE (Example 6), TPE-2 (chemical structure is not shown herein), TPE-3 (chemical structure is not shown herein) and TPE-C2N+ (Example 3), respectively. […] On the other hand, DNA incubated with TTAPE or the known quadruplex inducer; K^+ ions have very similar spectral profiles, while the ellipticities of DNA/TTAPE are somehow weaker than DNA/K^+.

HSA = HSA (Homo sapiens, UniProt P02768); details: cited from earlier work
HSA, sequence (P02768 25-609): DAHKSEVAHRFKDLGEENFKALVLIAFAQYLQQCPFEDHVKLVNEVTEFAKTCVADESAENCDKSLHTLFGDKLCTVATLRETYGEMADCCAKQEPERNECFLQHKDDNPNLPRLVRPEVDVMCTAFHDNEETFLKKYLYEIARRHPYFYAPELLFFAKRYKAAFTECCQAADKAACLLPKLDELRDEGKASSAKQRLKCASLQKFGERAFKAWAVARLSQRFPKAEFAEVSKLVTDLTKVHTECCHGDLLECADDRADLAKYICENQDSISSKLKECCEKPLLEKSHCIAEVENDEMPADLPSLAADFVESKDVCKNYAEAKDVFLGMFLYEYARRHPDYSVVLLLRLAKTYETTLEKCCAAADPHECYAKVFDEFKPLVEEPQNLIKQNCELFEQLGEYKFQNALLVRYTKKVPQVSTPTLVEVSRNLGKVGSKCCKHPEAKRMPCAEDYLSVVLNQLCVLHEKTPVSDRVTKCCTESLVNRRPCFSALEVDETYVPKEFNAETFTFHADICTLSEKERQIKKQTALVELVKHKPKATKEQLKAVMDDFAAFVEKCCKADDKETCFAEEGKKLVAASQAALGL

[6] = aggregate: 99% water/AN for TPE-OMe and TPE-OH, 99% AN/water for TPE-SO3
[7] = solution: acetonitrile for TPE-OMe and TPE-OH (10 μM), water for TPE-SO3 (5 μM)

Compound: CC[N+](CC)(CC)CCCCOc1ccc(/C(=C(\c2ccccc2)c2ccc(OCCCC[N+](CC)(CC)CC)cc2)c2ccccc2)cc1.[Br-].[Br-] [TPE-C4N^+, N,N′-[1,2-Diphenyl-1,2-bis(1,4-phenoxybutyl)vinyl]bis(triethylammonium bromide)]
Linear range of FL intensity vs BSA concentration [1]: 0-40 μg/ml^−1 | I/Io ([1]; 500 μg/ml BSA added): 23.8 | Linear range of FL intensity vs DNA concentration (calf thymus DNA (ctDNA)): 0-20 μg/ml^−1 | I/Io (calf thymus DNA (ctDNA); 300 μg/ml ct DNA added): 16.3 | Relative affinity to ctDNA versus BSA (calf thymus DNA (ctDNA)): gives the opposite result | Solubility in water (Solubility): soluble in water

Compound: CC[N+](CC)(CC)CCCCOc1ccc(C(=C(c2ccc(OCCCC[N+](CC)(CC)CC)cc2)c2ccc(OCCCC[N+](CC)(CC)CC)cc2)c2ccc(OCCCC[N+](CC)(CC)CC)cc2)cc1.[Br-].[Br-].[Br-].[Br-] [N+C4-TPE-C4N^+, N,N′,N″,N′″-[1,2-Tetrakis(1,4-phenoxybutyl)vinyl)tetrakis(triethylammonium bromide)]
Variety of FL in presence of DNA and RNA compared with TPE-C2N+ and TPE-C4N+ [2]: much larger variety of FL

Compound: 1,2-Diphenyl-1,2-bis(4,4′-(3-sulfonato)propoxyl)phenylethylene [TPE-SO3]
ΦE (quantum yield), bind [1]: 58.2% | λex (emission maximum), bind [1]: 472 nm | FL intensity increase upon binding with BSA ([1]; aqueous phosphate buffer, 472 nm): up to 240 times | ΦE (quantum yield), aggr [3, 6]: 17.47% | λab (absorption maximum), aggr [3, 6]: 320 nm | Emission maximum wavelength (λem) [3, 6]: 442 nm | ΦE (quantum yield), soln [3, 7]: 0.37% | λab (absorption maximum), soln [3, 7]: 312 nm | Emission maximum wavelength (λem) [3, 7]: 398 nm | Fluorescence profile during lysozyme fibril formation (lysozyme): produces fluorescence profile corresponding to lysozyme fibrillation | FL with fibrillar insulin [4]: significantly higher than other cellular proteins tested | FL with heparin, apoferritin and cellulose [4]: comparable to TPE-SO3 solution alone | FL with papain [4]: comparable to native insulin monomer | Emission on formation of amyloid-β-peptide fibrils (after aging) (amyloid-β-peptide): increases dramatically

Increase of ΦF at 99% water versus AN solution [5]: ~35 fold | Fluorescence quantum yield (ΦF), molecularly dissolved [5]: 0.5% | Fluorescence quantum yield (ΦF), aggregated [5]: 18% | Solubility in water (Solubility): totally insoluble in water
Compound: BrCCOc1ccc(C(=C(c2ccc(OCCBr)cc2)c2ccc(OCCBr)cc2)c2ccc(OCCBr)cc2)cc1 [TBEPE, 1,1,2,2-tetrakis[4-(2-bromoethoxy}phenyl]ethene]

ΦE (quantum yield), bind [1]: 35.7% | λex (emission maximum), bind [1]: 467 nm | Linear range of FL intensity vs BSA concentration ([1]; aqueous phosphate buffer pH 7.0): 0 to 10 µg/mL | ΦE (quantum yield), aggr [3, 6]: 8.90% | λab (absorption maximum), aggr [3, 6]: 316 nm | Emission maximum wavelength (λem) [3, 6]: 439 nm | ΦE (quantum yield), soln [3, 7]: 0.57% | λab (absorption maximum), soln [3, 7]: 312 nm | Emission maximum wavelength (λem) [3, 7]: 393 nm
Compound: Oc1ccc(/C(=C(\c2ccccc2)c2ccc(O)cc2)c2ccccc2)cc1 [TPE-OH, 1,2-Bis(4-hydroxyphenyl)-1,2-diphenylethylene]

Solubility in water (Solubility): insoluble
Compound: O=C(O)c1ccc(/C(=C(\c2ccccc2)c2ccc(C(=O)O)cc2)c2ccccc2)cc1 [TPE-COOH, 4,4′-(1,2-diphenylvinyl)di(phenylcarboxylic acid)]

Compound: CC[N+](CC)(CC)CCOc1ccc(/C(=C(\c2ccccc2)c2ccc(OCC[N+](CC)(CC)CC)cc2)c2ccccc2)cc1.[Br-].[Br-] [TPE-C2N^+, N,N′-[1,2-Diphenyl-1,2-bis(1,4-phenoxyethyl)vinyl]bis(triethylammonium bromide)]
Linear range of FL intensity vs BSA concentration [1]: 0-50 μg/ml^−1 | Linear range of FL intensity vs DNA concentration (calf thymus DNA (ctDNA)): 0-100 μg/ml^−1 | FL intensity increase upon addition of DNA (calf thymus DNA (ctDNA); phosphate buffer pH 7.0, 25 C): 5.4 fold | Relative affinity to ctDNA versus BSA (calf thymus DNA (ctDNA)): better affinity to ctDNA than BSA | G-quadruplex induction (CD spectral profile) (HG21 DNA): spectral profile comparable to the negative control | Solubility in water (Solubility): soluble in water

Increase of fluorescent intensity at 476 nm, AN solution to AN-water (1:99) suspension [5]: 240 fold | Increase of ΦF at 99% water versus AN solution [5]: ~40 fold | Fluorescence quantum yield (ΦF), molecularly dissolved [5]: ~0.5% | Fluorescence quantum yield (ΦF), aggregated [5]: ~20% | Solubility in water (Solubility): insoluble in water
Compound: BrCCOc1ccc(C(=C(c2ccccc2)c2ccc(OCCBr)cc2)c2ccccc2)cc1 [TPE 1, 1,2-Bis[4-(2-bromoethoxy)phenyl]-1,2-diphenylethene]

ΦE (quantum yield), aggr [3, 6]: 15.30% | λab (absorption maximum), aggr [3, 6]: 330 nm | Emission maximum wavelength (λem) [3, 6]: 477 nm | ΦE (quantum yield), soln [3, 7]: 0.11% | λab (absorption maximum), soln [3, 7]: 311 nm | Emission maximum wavelength (λem) [3, 7]: 394 nm
Compound: COc1ccc(C(=C(c2ccccc2)c2ccc(OC)cc2)c2ccccc2)cc1 [TPE-OMe, 1,2-Bis(4-methoxyphenyl)-1,2diphenylethene]

Compound: Coomassie Brilliant Blue
Staining reaction (soaking) time (HSA): more than 6 hours
